The source made the active and inactive calls.
Columns and labels:
Assay type in all cases: functional
Activin receptor type-1 = Activin receptor type-1 (Homo sapiens, UniProt Q04771); test: Navigating the Kinome. Panel member name: ACVR1
[1] = molecular target: Proto-oncogene tyrosine-protein kinase receptor Ret (Homo sapiens, UniProt P07949);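 also: measured within a kinome-wide profiling panel, RET as the panel member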
[2] = molecular target: Sphingosine 1-phosphate receptor 1 (Homo sapiens, UniProt P21453);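 also: Tango beta-arrestin reporter U2OS cells stimulated with S1P near its EC80; inhibitor potency meaning antagonism of receptor activation by the natural agonist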
Sequence of Sphingosine 1-phosphate receptor 1 (P21453 whole entry): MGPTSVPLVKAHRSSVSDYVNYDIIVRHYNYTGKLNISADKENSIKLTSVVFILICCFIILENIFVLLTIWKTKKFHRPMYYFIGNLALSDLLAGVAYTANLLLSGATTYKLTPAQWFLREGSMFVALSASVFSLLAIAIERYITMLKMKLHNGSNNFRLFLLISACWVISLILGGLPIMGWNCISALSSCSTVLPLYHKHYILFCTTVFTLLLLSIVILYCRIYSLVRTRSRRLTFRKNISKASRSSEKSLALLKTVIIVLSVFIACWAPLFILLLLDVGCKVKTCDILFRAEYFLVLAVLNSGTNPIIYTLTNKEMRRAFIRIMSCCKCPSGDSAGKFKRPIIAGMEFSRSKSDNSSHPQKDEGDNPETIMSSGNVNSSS

[3] = molecular target: T1, Alkaline phosphatase, tissue-nonspecific isozyme (Homo sapiens, UniProt P05186); test: TNAP enzyme inhibition by screening hits, dose response, selectivity assay for mouse IAP inhibitor project, biochemical, human TNAP, uHTS hits (AID 488906)
T1 sequence (P05186 whole entry): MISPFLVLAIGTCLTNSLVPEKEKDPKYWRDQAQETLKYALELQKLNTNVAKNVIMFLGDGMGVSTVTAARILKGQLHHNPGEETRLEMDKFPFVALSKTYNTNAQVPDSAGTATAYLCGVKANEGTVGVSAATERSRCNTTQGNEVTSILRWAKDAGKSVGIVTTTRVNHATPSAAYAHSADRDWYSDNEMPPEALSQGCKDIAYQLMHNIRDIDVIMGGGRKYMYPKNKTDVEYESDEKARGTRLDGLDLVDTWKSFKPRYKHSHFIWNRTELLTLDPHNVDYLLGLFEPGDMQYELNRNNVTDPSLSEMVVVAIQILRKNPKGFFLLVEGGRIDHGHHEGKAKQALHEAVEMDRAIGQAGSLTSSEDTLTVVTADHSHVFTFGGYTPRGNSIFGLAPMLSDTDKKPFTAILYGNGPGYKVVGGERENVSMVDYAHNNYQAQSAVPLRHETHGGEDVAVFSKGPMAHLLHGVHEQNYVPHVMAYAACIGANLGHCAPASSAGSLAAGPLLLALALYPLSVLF

Sequence of Activin receptor type-1 (Q04771 whole entry): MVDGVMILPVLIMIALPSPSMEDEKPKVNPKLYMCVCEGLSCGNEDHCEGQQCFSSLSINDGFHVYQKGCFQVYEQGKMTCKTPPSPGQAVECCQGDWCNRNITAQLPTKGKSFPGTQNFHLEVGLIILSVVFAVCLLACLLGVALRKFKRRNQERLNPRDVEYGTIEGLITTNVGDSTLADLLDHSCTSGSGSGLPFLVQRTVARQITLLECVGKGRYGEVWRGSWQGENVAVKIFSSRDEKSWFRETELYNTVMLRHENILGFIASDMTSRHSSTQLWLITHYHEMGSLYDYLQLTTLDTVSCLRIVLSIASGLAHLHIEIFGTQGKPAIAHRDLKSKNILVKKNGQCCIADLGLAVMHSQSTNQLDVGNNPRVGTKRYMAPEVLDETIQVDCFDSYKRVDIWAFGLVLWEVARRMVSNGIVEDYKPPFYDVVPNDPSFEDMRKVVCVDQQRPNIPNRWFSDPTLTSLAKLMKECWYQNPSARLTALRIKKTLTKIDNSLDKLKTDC
Sequence of Proto-oncogene tyrosine-protein kinase receptor Ret (P07949 whole entry): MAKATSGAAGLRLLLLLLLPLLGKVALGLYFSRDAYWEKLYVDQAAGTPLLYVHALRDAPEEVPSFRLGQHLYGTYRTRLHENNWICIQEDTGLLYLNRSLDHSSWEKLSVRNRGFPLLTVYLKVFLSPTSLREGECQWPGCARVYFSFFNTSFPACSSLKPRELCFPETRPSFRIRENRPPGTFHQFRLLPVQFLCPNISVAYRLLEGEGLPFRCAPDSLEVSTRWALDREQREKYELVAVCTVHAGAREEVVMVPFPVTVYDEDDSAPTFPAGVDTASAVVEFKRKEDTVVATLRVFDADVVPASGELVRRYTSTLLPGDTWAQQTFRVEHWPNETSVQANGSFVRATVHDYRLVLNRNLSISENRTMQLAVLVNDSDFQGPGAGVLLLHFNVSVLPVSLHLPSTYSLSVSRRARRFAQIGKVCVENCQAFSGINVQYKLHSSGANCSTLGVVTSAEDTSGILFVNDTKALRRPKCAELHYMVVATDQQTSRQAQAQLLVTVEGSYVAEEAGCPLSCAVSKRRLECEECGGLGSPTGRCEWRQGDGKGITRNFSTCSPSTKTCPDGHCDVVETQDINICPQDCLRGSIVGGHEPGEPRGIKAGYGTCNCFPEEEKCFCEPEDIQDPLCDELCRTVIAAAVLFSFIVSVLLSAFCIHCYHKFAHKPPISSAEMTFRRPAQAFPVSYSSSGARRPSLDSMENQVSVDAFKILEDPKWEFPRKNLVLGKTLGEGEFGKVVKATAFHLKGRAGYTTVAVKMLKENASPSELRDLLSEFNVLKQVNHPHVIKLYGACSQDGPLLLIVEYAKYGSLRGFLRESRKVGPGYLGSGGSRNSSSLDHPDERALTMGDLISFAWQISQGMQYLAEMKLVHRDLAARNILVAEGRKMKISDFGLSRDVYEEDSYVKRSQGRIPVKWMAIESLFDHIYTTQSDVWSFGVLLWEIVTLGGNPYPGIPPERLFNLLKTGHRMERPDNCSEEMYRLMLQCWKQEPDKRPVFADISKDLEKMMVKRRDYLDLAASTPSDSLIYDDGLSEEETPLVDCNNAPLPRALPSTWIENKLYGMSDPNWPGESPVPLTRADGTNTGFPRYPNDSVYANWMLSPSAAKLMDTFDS

Which Ki (Activin receptor type-1) does the source give for Cc1ccc(-c2cc(-c3cc(Br)ccc3O)[nH]c(=O)c2C#N)s1 here?
The Ki was > 3.98 µM (inactive).

O=C(Nc1cccc(C2Nc3ccc4ccccc4c3C3C=CCC32)c1)c1ccc(F)cc1 (centres undefined) was tested. Which Ki [1] did it give?
Its Ki is > 3.16 µM (inactive).

Which IC50 [2] does the source give for Cc1ccc(C(=O)OCn2ncc(Cl)c(Cl)c2=O)cc1 here?
Its IC50 is 10.6 µM (not active).

For O=C(O)CC(C(=O)O)N1C(=O)/C(=C/C=C/c2ccco2)SC1=S (centres undefined), which IC50 [3] is on record?
The IC50 was 91.8 µM (active).
